Results taken from ChEMBL document CHEMBL1201862, “PubChem BioAssay data set” (2004).
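How tested: cells in 96-well plates exposed to compound for 48 hours at five concentrations. The concentration for 50% growth inhibition is given as GI50.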 Active and inactive are the calls of the source. No stated cut-off is given here; in the data, active = GI50 up to about 1.1 µM and inactive = higher.

Legend:
Assay in all cases: NCI-60 cell line screen, 48 h
[1] = test system: SW-620
[2] = test system: HOP-92
[3] = test system: SF-295
[4] = test system: 786-0
[5] = test system: HCT-15
[6] = test system: UACC-257
[7] = test system: HOP-62
[8] = test system: Malme-3M
[9] = test system: NCI-H522
[10] = test system: A498
[11] = test system: ACHN
[12] = test system: OVCAR-4
[13] = test system: A549
[14] = test system: OVCAR-8
[15] = test system: LOX IMVI
[16] = test system: UACC-62
[17] = test system: T47D
[18] = test system: SN12C
[19] = test system: SNB-75
[20] = test system: SR

| Structure (SMILES) | GI50 [1] | GI50 [2] | GI50 [3] | GI50 [4] | GI50 [5] | GI50 [6] | GI50 [7] | GI50 [8] | GI50 [9] | GI50 [10] | GI50 [11] | GI50 [12] | GI50 [13] | GI50 [14] | GI50 [15] | GI50 [16] | GI50 [17] | GI50 [18] | GI50 [19] | GI50 [20] |
| --- | --- | --- | --- | --- | --- | --- | --- | --- | --- | --- | --- | --- | --- | --- | --- | --- | --- | --- | --- | --- |
| N/C(=N\c1ccc(Cl)cc1)NS(=O)(=O)c1c(C(F)(F)F)cccc1C(F)(F)F | 33.3 µM (inactive) | 16.7 µM (inactive) | 7.85 µM (inactive) | 24.8 µM (inactive) | 17 µM | 18.6 µM (inactive) | 24 µM (inactive) | 17.4 µM (inactive) | 10.1 µM (inactive) | 17.8 µM (inactive) | 14.5 µM (inactive) | 17.5 µM (inactive) | 12.6 µM (inactive) | 20.7 µM (inactive) | 16.3 µM (inactive) | 8.34 µM (inactive) | 12.5 µM (inactive) | 16.1 µM (inactive) | 41.8 µM (inactive) | > 100 µM (inactive) |
| N#CC(C#N)=Cc1c[nH]c(=O)[nH]c1=O | 54.2 µM (inactive) | > 100 µM (inactive) | > 100 µM (inactive) | > 100 µM (inactive) | > 100 µM | > 100 µM (inactive) | > 100 µM (inactive) | 6.35 µM (inactive) | 41 µM (inactive) | > 100 µM (inactive) | > 100 µM (inactive) | > 100 µM (inactive) | > 100 µM (inactive) | > 100 µM (inactive) | > 100 µM (inactive) | > 100 µM (inactive) | > 100 µM (inactive) | > 100 µM (inactive) | > 100 µM (inactive) | 0.152 µM (active) |
| COc1ccc(-n2nnc3c(C#N)c(-c4ccccc4)c(C)n3c2=O)cc1 | 27.2 µM (inactive) | 23.8 µM (inactive) | 54.6 µM (inactive) | 19.1 µM (inactive) | 31.4 µM | 85.5 µM (inactive) | 35.4 µM (inactive) | > 100 µM (inactive) | 22.6 µM (inactive) | 38.1 µM (inactive) | 30.1 µM (inactive) | 28.8 µM (inactive) | > 100 µM (inactive) | 27.4 µM (inactive) | 33.8 µM (inactive) | 53.7 µM (inactive) | 49.5 µM (inactive) | 62.5 µM (inactive) | 27.1 µM (inactive) | 7.45 µM (inactive) |
| C#CCNC(Cc1c[nH]cn1)C(=O)O (stereo not given) | > 100 µM (inactive) | > 100 µM (inactive) | > 100 µM (inactive) | > 100 µM (inactive) | > 100 µM | > 100 µM (inactive) | > 100 µM (inactive) | > 100 µM (inactive) | > 100 µM (inactive) | > 100 µM (inactive) | > 100 µM (inactive) | > 100 µM (inactive) | > 100 µM (inactive) | > 100 µM (inactive) | > 100 µM (inactive) | > 100 µM (inactive) | > 100 µM (inactive) | > 100 µM (inactive) | > 100 µM (inactive) | > 100 µM (inactive) |
| CCOC(=O)C1=CN/C(=C(/C)C(=O)OC)SC1C(=O)OCC (stereo not given) | > 100 µM (inactive) | > 76.9 µM (inactive) | > 100 µM (inactive) | > 100 µM (inactive) | > 100 µM | > 100 µM (inactive) | > 100 µM (inactive) | > 100 µM (inactive) | > 76.7 µM (inactive) | > 100 µM (inactive) | > 100 µM (inactive) | > 100 µM (inactive) | > 100 µM (inactive) | > 100 µM (inactive) | > 100 µM (inactive) | > 100 µM (inactive) | 57.9 µM (inactive) | > 100 µM (inactive) | > 100 µM (inactive) | 47.8 µM (inactive) |
| C=C1C(=O)OC2CC(C)C3C=CC(=O)C3CC12 (stereo not given) | 0.998 µM (active) | 1.88 µM (inactive) | 14.6 µM (inactive) | 1.76 µM (inactive) | 1.85 µM | 2.02 µM (inactive) | 15.9 µM (inactive) | 2.05 µM (inactive) | 0.61 µM (active) | 11.5 µM (inactive) | 3.08 µM (inactive) | 2.95 µM (inactive) | 7.93 µM (inactive) | 2.94 µM (inactive) | 0.867 µM (active) | 1.71 µM (inactive) | 2.34 µM (inactive) | 2.02 µM (inactive) | 5.51 µM (inactive) | 0.824 µM (active) |
| COc1cc2c(cc1OC)C1(c3ccccc3)CN(C2)Cc2cc(OC)c(OC)cc21 | 33.6 µM (inactive) | 32.6 µM (inactive) | 32.6 µM (inactive) | 31.6 µM (inactive) | 24.3 µM | 40.2 µM (inactive) | 40.6 µM (inactive) | 36.4 µM (inactive) | 26.2 µM (inactive) | 35.2 µM (inactive) | 54.1 µM (inactive) | 23.3 µM (inactive) | 46.3 µM (inactive) | 40.6 µM (inactive) | 34.8 µM (inactive) | 32.3 µM (inactive) | 35.6 µM (inactive) | > 100 µM (inactive) | 27.9 µM (inactive) | 5.3 µM (inactive) |
| Nc1nn2c(nc(N)c3c(N)n[nH]c32)c1/N=N\c1ccc(Br)cc1 | 43.7 µM (inactive) | 3.71 µM (inactive) | > 100 µM (inactive) | 40.9 µM (inactive) | > 91.8 µM | 26.7 µM (inactive) | 42.9 µM (inactive) | 4.42 µM (inactive) | 27.5 µM (inactive) | > 100 µM (inactive) | 69.3 µM (inactive) | 16.4 µM (inactive) | > 100 µM (inactive) | 21 µM (inactive) | 2.88 µM (inactive) | > 100 µM (inactive) | 1.76 µM (inactive) | 7.76 µM (inactive) | 18.1 µM (inactive) | 2.72 µM (inactive) |
| NC(=O)CCSC(CC(=O)c1ccc(Cl)cc1)c1ccc(Cl)cc1 (stereo not given) | 3.08 µM (inactive) | 15 µM (inactive) | 25.2 µM (inactive) | 30 µM (inactive) | 10.5 µM | 27.7 µM (inactive) | 28.1 µM (inactive) | 24.9 µM (inactive) | 23.2 µM (inactive) | 22.5 µM (inactive) | 34.7 µM (inactive) | 16.8 µM (inactive) | 29.9 µM (inactive) | 16.3 µM (inactive) | 12.1 µM (inactive) | 16.8 µM (inactive) | 19.1 µM (inactive) | 28.2 µM (inactive) | 40.1 µM (inactive) | 4.06 µM (inactive) |
